Patent US20230193265A1, “CUG REPEAT SEQUENCE BINDING AGENT” (OSAKA UNIVERSITY, priority 2020, published 2023)

Assays:
[1] = tested on: r(CUG)9; assay: Surface plasmon resonance (SPR) binding to immobilized r(CUG)9 RNA
Procedure: A streptavidin-coated sensor chip (SA chip, GE Healthcare) was washed with HBS-EP^+ buffer (10 mM HEPES, pH 7.4, 0.15 M NaCl, 3 mM EDTA and 0.05% v/v Surfactant P20) for 6 minutes, and then activated with three consecutive 1-min injection of 30 μL of activation buffer (50 mM NaOH and 1 M NaCl).
5′-Biotinylated r(CUG)9 (Thermo Fisher Scientific Inc.) was diluted to 0.1 μM with HEPES buffer (10 mM HEPES and 500 mM NaCl) and flowed onto the sensor chip until immobilized response units (RU) reaching around 400 RU. The amount of r(CUG)9 immobilized on the surface of the sensor chip was at 401 RU.
Surface plasmon resonance was measured using BIAcore T200 SPR system (GE Healthcare).
r(CUG)9 used for the SPR assay has the sequence as shown below.
For single-cycle kinetic (SCK) analysis, the surface of the sensor chip was conditioned by 120 sec exposure of continuous flow of HBS-EP^+ buffer at a flow rate of 30 μL/min at 25° C. Compound JM608 was dissolved in HBS-EP^+ buffer at a concentration of 0.063 μM, 0.125 μM, 0.25 μM, 0.50 μM and 1.0 μM, and the resulting solutions were sequentially injected on the sensor surface for 60 seconds each at a flow rate of 30 μL/min per cycle.
The obtained SPR response curves were analyzed using BIAcore T200 evaluation software (version 2.0).
SPR measurement was performed in the same manner as in Example 1 except that compound JM642 was used in place of compound JM608 and that solutions of compound JM642 at concentrations of 6 nM, 13 nM, 25 nM, 50 nM and 100 nM were sequentially injected.
The resonance unit for the compound at a concentration of 25 nM in Example 1 was calculated from the measured value (1.9 RU) for the compound at 63 nM using the formula: 1.9 RU×(25 nM/63 nM).

[2] = tested on: Atp2a1 (sarcoplasmic reticulum Ca2+/ATPase gene) Exon 22 splicing; assay: Improvement of Atp2a1 splicing abnormality in DM1 mouse model; assay type: in vivo, homozygous HSA^LR transgenic mice; settings: 20 mg/kg/day, daily intraperitoneal administration for five days; rectus femoris (quadriceps)
Procedure: (§1) Gender- and age-matched homozygous HSA^LR transgenic mice of line 20b (FVB inbred background) (Science 2000, 289, 1769-1772) (<3 months old) were treated with JM642 at indicated doses (10 mg/kg/day and 20 mg/kg/day) for five days by daily intraperitoneal administration. After treatments, the rectus femoris (quadriceps) were obtained for splicing analysis. Total RNA extraction from the tissue, cDNA synthesis and polymerase chain reaction (PCR) were carried out according to Ann. Clin. Transl. Neurol. 2016, 3, 42-54. The PCR products were separated by agarose gel electrophoresis, and the gel was stained with GelRed (Biotium). The gel was imaged using a Typhoon laser fluorimager (GE Healthcare) and the gel bands were quantified using ImageQuant (GE Healthcare).
(§2) For normal mice and mice treated in the same manner as above except that JM642 was not administered, total RNA extraction, cDNA synthesis, PCR and electrophoresis of the PCR products were performed in the same manner as above.
Evaluation was performed in the same manner as in Example 3 except that the compound (DDAP) shown below synthesized in accordance with the method described in non-patent literature 3 was used in place of compound JM642.

[3] = tested on: Clcn1 (muscle-specific chloride channel gene) Exon 7a splicing; assay: Improvement of Clcn1 splicing abnormality in DM1 mouse model; assay type: in vivo, homozygous HSA^LR transgenic mice; settings: 20 mg/kg/day, daily intraperitoneal administration for five days; rectus femoris (quadriceps)
Procedure: as §1, §2
Evaluation was performed in the same manner as in Example 3 except that Clcn1 was studied in place of Atp2a1.
Evaluation was performed in the same manner as in Example 4 except that the compound (DDAP) shown above synthesized in accordance with the method described in non-patent literature 3 was used in place of compound JM642.

NCCCNc1nc(NC(=O)OCCCN)cc2c(-c3ccnc(N4CCNCC4)c3)cccc12 [JM608, 3-aminopropyl (1-((3-aminopropyl)amino)-5-(2-(piperazin-1-yl)pyridin-4-yl)isoquinolin-3-yl)carbamate]
Resonance unit (RU) at concentration of 25 nM ([1]; 25 nM compound, r(CUG)9 immobilized at 401 RU, calculated from measured value at 63 nM: 1.9 RU×(25 nM/63 nM)): 0.8 RU | Resonance unit, measured value at 63 nM ([1]; 63 nM compound, r(CUG)9 immobilized at 401 RU): 1.9 RU | binding capacity to the CUG repeat sequence ([1]; SPR, FIGS. 1 and 2 and Table 2): observed

NCCCNc1nc(NC(=O)OCCCNC(=O)CCNCCC(=O)NCCCOC(=O)Nc2cc3c(-c4ccnc(N5CCNCC5)c4)cccc3c(NCCCN)n2)cc2c(-c3ccnc(N4CCNCC4)c3)cccc12 [JM642, ((3,3′-azanediylbis(propanoyl))bis(azanediyl))bis(propane-3,1-diyl)bis((1-((3-aminopropyl)amino)-5-(2-(piperazin-1-yl)pyridin-4-yl)isoquinolin-3-yl)carbamate)]
inclusion rate of Exon 22 [2]: 70% | skipping rate of Exon 7a [3]: 70%
